Patent US7759510B2, “Platinum complexes and methods of use” (University of South Florida, priority 2003, dated 2010)
Read-outs that look alike come from different tables or passages of the source.

Tests used:
A549 cells = assay: MTT assay, percent survival of A549 cells; assay type: cell-based; conditions: A549; for IC50: read-out: Calculated IC 50 (uM concentration)
Method: 1. Prepare a suspension of A549 cells at 2×10^5 cells per mL in supplemented DMEM/F12 growth medium.
2. Plate 2×10^4 cells per well in a 96 well cell culture plate by adding 100 μL of stock suspension to each well.
3. For each platinum compound (already in solution), prepare a readily usable stock solution in DMEM/F12 medium.
4. For each compound generate triplicate trials of 0, 10, 20, 30, 40, 50, 60, and 70 μM concentration. This is achieved in situ by adding appropriate volumes of stock solution to each well along with the volume of untreated medium necessary to generate the desired concentration in a final volume of 200 μL.
5. Gently agitate plates to mix contents. Incubate at 37° C., 7% CO2 for 45 hours.
6. Add 20 μL of 5 mg/mL MTT solution (in PBS) to each well.
7. Gently agitate plates to mix contents and incubate an additional 3 hours to allow product development.
8. Remove plates from incubator and agitate to cause settling of formazan product.
9. Aspirate out liquid contents of each well using needle and syringe and discard.
10. Add 200 μL DMSO to each well to dissolve formazan product.
11. Agitate plates until all of the formazan product is in solution and no purple crystals remain on the bottom surface of the wells.
12. Read the absorbance of each well at […] using Varian software for Cary 50 UV-vis Spectrophotometer with fiber optic probe accessory.
(§1) MTT assays are used for the quantitative determination of cellular proliferation and activation and for the quantitation of in vitro tumor cell sensitivity to anti-cancer compounds. The assay is based on the cleavage of the yellow tetrazolium salt MTT into purple colored formazan by metabolically active cells. Solubilized formazan product can be photometrically quantitated using an ELISA plate reader. A decrease in the number of living cells results in a decrease in total metabolic activity which leads to a decrease in color formation. Platinum complexes of the present invention were tested in MTT assays using A549 cells to determine anti-cancer cell activity. […] FIGS. 1, 2, and 4 show percent survival versus platinum complex concentration in graphical form.
as §1, with “FIGS. 8, 9,” for “FIGS. 1, 2,”, “and 11” for “and 4”

Stat3 = biological target: T1, Stat3 (Mus musculus, UniProt P42227); assay: EMSA of nuclear extracts, Stat3 DNA-binding activity to hSIE probe; assay type: biochemical; conditions: in vitro
T1 construct: Nuclear extracts were prepared from NIH3T3/hEGFR cell that overexpress human epidermal growth factor (EGF) receptor and stimulated with EGF; endogenous in cells; host or cells: NIH3T3/hEGFR fibroblasts, EGF-stimulated (6 ng/ml, 15 min), nuclear extract
T1 sequence (P42227 whole entry): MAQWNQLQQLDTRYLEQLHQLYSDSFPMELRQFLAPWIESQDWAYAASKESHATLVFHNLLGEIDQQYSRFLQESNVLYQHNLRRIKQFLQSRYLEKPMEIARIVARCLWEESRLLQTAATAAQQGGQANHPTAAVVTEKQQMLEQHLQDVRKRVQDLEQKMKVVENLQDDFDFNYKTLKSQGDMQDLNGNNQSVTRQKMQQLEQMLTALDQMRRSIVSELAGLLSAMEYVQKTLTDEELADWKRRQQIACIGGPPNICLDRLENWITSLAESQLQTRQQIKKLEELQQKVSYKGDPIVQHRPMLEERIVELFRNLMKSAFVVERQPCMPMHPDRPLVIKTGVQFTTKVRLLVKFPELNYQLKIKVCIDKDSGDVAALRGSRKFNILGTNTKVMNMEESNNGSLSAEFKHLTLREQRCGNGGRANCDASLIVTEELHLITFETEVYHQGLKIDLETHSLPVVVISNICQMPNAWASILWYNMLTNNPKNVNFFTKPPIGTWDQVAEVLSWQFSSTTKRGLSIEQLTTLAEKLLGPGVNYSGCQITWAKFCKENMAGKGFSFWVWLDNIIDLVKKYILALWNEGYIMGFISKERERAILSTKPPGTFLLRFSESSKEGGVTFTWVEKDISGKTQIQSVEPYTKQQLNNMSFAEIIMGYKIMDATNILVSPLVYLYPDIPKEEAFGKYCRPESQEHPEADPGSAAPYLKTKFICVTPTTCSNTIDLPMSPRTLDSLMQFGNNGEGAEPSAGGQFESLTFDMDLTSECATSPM
Method: Nuclear Extract Preparation and Analysis by EMSA of HK-Designated Platinum Complexes.
Nuclear extracts were prepared from NIH3T3/hEGFR cell that overexpress human epidermal growth factor (EGF) receptor and stimulated with EGF (6 ng/ml) for 15 min. Nuclear extracts were pre-incubated with compounds for 30 min at room temperature prior to incubation with radiolabeled probe. The ^32P-labeled oligonucleotide probe used is hSIE (high affinity sis-inducible element, m67 variant, 5′-[…]-3′) (SEQ ID NO:1) that binds both Stat1 and Stat3.
Other platinum (IV) complexes were evaluated for inhibitory activity against STAT DNA-binding in vitro.

CC(C)(C(=O)O)C(O)(C(=O)O)C(C)(C)C(=O)[O][Pt]([NH2])([NH2])([Cl])([Cl])[N+](=O)[O-] (centres unmarked) [CPA-31]
Average Absorbance (A549 cells; Table 1, 10 μM): 2.4274
Percent Survival (A549 cells; Table 1, 10 μM): 102.8080%
Average Absorbance (A549 cells; Table 1, 20 μM): 2.3495
Percent Survival (A549 cells; Table 1, 20 μM): 99.5087%
Average Absorbance (A549 cells; Table 1, 30 μM): 2.3778
Percent Survival (A549 cells; Table 1, 30 μM): 100.7073%
IC50 (A549 cells; Table 2, extrapolated from incomplete data (10-40 uM; CPA-31 10-30 μM), outside the measured range): 506 µM
Average Absorbance (A549 cells; Table 3, 10 μM): 2.5294
Percent Survival (A549 cells; Table 3, 10 μM): 103.5409%
Average Absorbance (A549 cells; Table 3, 20 μM): 2.3875
Percent Survival (A549 cells; Table 3, 20 μM): 97.7322%
Average Absorbance (A549 cells; Table 3, 30 μM): 1.7978
Percent Survival (A549 cells; Table 3, 30 μM): 73.5929%
Average Absorbance (A549 cells; Table 3, 40 μM): 0.8196
Percent Survival (A549 cells; Table 3, 40 μM): 33.5503%
Average Absorbance (A549 cells; Table 3, 50 μM): 0.6049
Percent Survival (A549 cells; Table 3, 50 μM): 24.7616%
Average Absorbance (A549 cells; Table 3, 60 μM): 0.6067
Percent Survival (A549 cells; Table 3, 60 μM): 24.8352%
Average Absorbance (A549 cells; Table 3, 70 μM): 0.6228
Percent Survival (A549 cells; Table 3, 70 μM): 25.4943%

O=C1C(Br)=CC2=C(c3ccccc3C(=O)[O-])C3C=C(Br)C([O-])=C(Br)C3OC2=C1Br.[NH2][Pt]([NH2])([Cl])([Cl])[N+](=O)[O-] (centres unmarked) [CPA-30]
Disruption of Stat3 activity / ability to bind its consensus binding sequence (Stat3): strongly disrupt Stat3 activity

Methylene blue
Average Absorbance (A549 cells; Table 6, 10 μM): 2.3750
Percent Survival (A549 cells; Table 6, 10 μM): 100.5887%
Average Absorbance (A549 cells; Table 6, 20 μM): 2.2927
Percent Survival (A549 cells; Table 6, 20 μM): 97.1030%
Average Absorbance (A549 cells; Table 6, 30 μM): 2.2510
Percent Survival (A549 cells; Table 6, 30 μM): 95.3369%
Average Absorbance (A549 cells; Table 6, 40 μM): 1.5702
Percent Survival (A549 cells; Table 6, 40 μM): 66.5029%
Average Absorbance (A549 cells; Table 6, 50 μM): 0.8542
Percent Survival (A549 cells; Table 6, 50 μM): 36.1781%
Average Absorbance (A549 cells; Table 6, 60 μM): 1.1911
Percent Survival (A549 cells; Table 6, 60 μM): 50.4468%
Average Absorbance (A549 cells; Table 6, 70 μM): 0.9505
Percent Survival (A549 cells; Table 6, 70 μM): 40.2567%
IC50 (A549 cells; Table 7, linear trend from percent survival vs. concentration data): 56.4 µM
Average Absorbance (A549 cells; Table 8, 10 μM): 2.5299
Percent Survival (A549 cells; Table 8, 10 μM): 103.5613%
Average Absorbance (A549 cells; Table 8, 20 μM): 2.1653
Percent Survival (A549 cells; Table 8, 20 μM): 88.6365%
Average Absorbance (A549 cells; Table 8, 30 μM): 1.6536
Percent Survival (A549 cells; Table 8, 30 μM): 67.6900%
Average Absorbance (A549 cells; Table 8, 40 μM): 0.7522
Percent Survival (A549 cells; Table 8, 40 μM): 30.7913%
Average Absorbance (A549 cells; Table 8, 50 μM): 0.6302
Percent Survival (A549 cells; Table 8, 50 μM): 25.7972%
Average Absorbance (A549 cells; Table 8, 60 μM): 0.7701
Percent Survival (A549 cells; Table 8, 60 μM): 31.5240%
Average Absorbance (A549 cells; Table 8, 70 μM): 0.7481
Percent Survival (A549 cells; Table 8, 70 μM): 30.6234%

Caffeine
Average Absorbance (A549 cells; Table 9, 10 μM): 0.4606
Percent Survival (A549 cells; Table 9, 10 μM): 72.24%
Average Absorbance (A549 cells; Table 9, 20 μM): 0.3935
Percent Survival (A549 cells; Table 9, 20 μM): 61.71%
Average Absorbance (A549 cells; Table 9, 30 μM): 0.2016
Percent Survival (A549 cells; Table 9, 30 μM): 31.62%
Average Absorbance (A549 cells; Table 9, 40 μM): 0.08893
Percent Survival (A549 cells; Table 9, 40 μM): 13.95%
Average Absorbance (A549 cells; Table 9, 50 μM): 0.04983
Percent Survival (A549 cells; Table 9, 50 μM): 7.815%
Average Absorbance (A549 cells; Table 9, 60 μM): 0.06103
Percent Survival (A549 cells; Table 9, 60 μM): 9.571%
Average Absorbance (A549 cells; Table 9, 70 μM): 0.05103
Percent Survival (A549 cells; Table 9, 70 μM): 8.003%
